Experimental data as given in patent US20050085426A1, “Acid-sensitive compounds, preparation and use thereof” (priority 2000, published 2005).

Assays:
DNA = experiment: Ethidium bromide fluorescence test of DNA compaction and release at pH 5; type: physicochemical; settings: for variation in fluorescence over time (DNA not completely compacted): 0.4 nmol lipid/μg of DNA
Description: This can be easily shown by a fluorescence test with ethidium bromide (EtBr): the absence of fluorescence reflects the absence of free DNA, which means that the DNA is compacted.
In the text which follows, the two forms Syn and Trans of the acid-sensitive compound A as prepared in example 3 were used and the non-acid-sensitive analog described in the publication WO 97/18185, and which has the formula: H2N—(CH2)3—NH—(CH2)4—NH—(CH2)3—NH—CH2—CO-Gly-N[(CH2)17—CH3]2 was used as control. This non-acid-sensitive analog is called in the text which follows “control cationic lipid”.
The DNA is brought into contact with increasing quantities of control cationic lipid or of acid-sensitive compound A Syn or Trans, by mixing an equal volume of lipid solutions of different titers with the DNA solutions. Samples of 800 μl of DNA complexes having a concentration of 10 μg/ml are thus prepared in a sodium chloride solution at 150 mM with increasing quantities of control cationic lipid or of acid-sensitive compound A Syn or Trans.
At time t=0, 200 μl of buffer having a concentration of 0.1 mol/l at pH 5 are added to these samples and the samples are stored in an oven at 37° C. The fluorescence with ethidium bromide (EtBr) is measured over time (measurement at 20° C.) using a FluoroMax-2 (Jobin Yvon-Spex), with excitation and emission wavelengths of 260 nm and 590 nm respectively. The slit widths for excitation and for emission are set at 5 nm. The fluorescence value is recorded after addition of 3 μl of ethidium bromide at 1 g/l per ml of DNA/cationic lipid or DNA/acid-sensitive compound solution (at 0.01 mg of DNA/ml).

HeLa cells = experiment: In vitro transfection of HeLa cells, luciferase activity; type: cell-based, human; settings: for transfection activity: 1.0 to 10.0 nmol of lipid/μg of DNA; for effect of the presence of serum on transfection: with serum (10% FCS)
Procedure: This study was carried out at 4 different charge ratios: 1.0 or 4.0 or 6.0 or 10.0 nmol of lipid/μg of DNA. Each of these conditions was tested with and without fetal calf serum (“+ or − Serum”)
Culture of the cells: HeLa cells (American type Culture Collection (ATCC) Rockville, Md., USA) derived from a human cervical epithelium carcinoma, are cultured in the presence of a medium of the MEM (“minimum essential medium”) type with addition of 2 mM L-glutamine, 50 units/ml of penicillin, and 50 units/ml of streptomycin. The medium and the additives are obtained from Gibco/BRL life Technologies (Gaithersburg, Md., USA). The cells are cultured in flasks at 37° C. and at 5% carbon dioxide in an incubator.
Transfection: a day before the transfection, the HeLa cells are transferred into 24-well plates with a cell number of 30,000 to 50,000 per well. These dilutions represent approximately 80% confluence after 24 hours.
For the transfection, the cells are washed twice and incubated at 37° C. with 500 μl of medium with serum (10% FCS v/v) or without serum.
50 μl of complexes containing 0.5 μg of plasmid DNA are added to each well (the complexes are prepared at least 30 minutes before the addition to the well). After two hours at 37° C., the plates without serum are supplemented with 10% (v/v) of FCS (“Fetal Calf Serum”).
All the plates are placed for 36 hours at 37° C. and at 5% carbon dioxide.
Determination of the luciferase activity: Briefly, the transfected cells are washed twice with 500 μl of PBS (phosphate buffer) and then lysed with 250 μl of reagent (Promega cell culture lysis reagent, from the Luciferase Assay System kit).
An aliquot of 10 μl of supernatant of the lysate centrifuged (12,000×g) for 5 minutes at 4° C. is measured with the Wallac Victor2 luminometer (1420 Multilabel couter).
The luciferase activity is assayed by the emission of light in the presence of luciferin, of coenzyme A and of ATP for 10 seconds and expressed relative to 2000 treated cells. The luciferase activity is thus expressed as Relative Light Unit (“RLU”: “Relative light unit”) and normalized with the concentration of proteins in the sample obtained using a Pierce BCA kit (Rockford, Ill., USA).

[1] = test system: control cationic lipid/DNA particles; experiment: Colloidal stabilization of DNA/control cationic lipid particles, hydrodynamic diameter; type: physicochemical; settings: as nonionic surfactant for nucleolipid particles
Description: In the present example, the cationic lipid used is that already used in examples 7 and 8 and described in the publication WO 97/18185 under the formula: H2N—(CH2)3—NH—(CH2)4—NH—(CH2)3—NH—CH2—CO-Gly-N[(CH2)17—CH3]2 (control cationic lipid).
Compounds C and D prepared in example 5 are used as acid-sensitive pegoylated lipids. As controls, there are used BRIJ 700 (SIGMA) and the pegoylated lipid of formula: [drawing 27] which are non-acid-sensitive analogs of compounds C and D, respectively, and which are known as nonionic surfactants (see for example the publication WO 98/34648). The two controls are used at 10 g/l in water.
(§1) All these samples have a control cationic lipid/DNA ratio of 1.5 (in nmol of lipid per μg of DNA) and contain increasing quantities of pegoylated lipid (expressed as polymer/DNA weight/weight ratio).
The measurement of the hydrodynamic diameter is made with a Coulter N4Plus apparatus using plastic cuvettes (four transparent sides) filled with 800 μl of the different solutions containing 0.01 mg of DNA/ml, the measurement being carried out at 90° in unimodal mode.

[2] = test system: DNA/control cationic lipid nucleolipid complexes; experiment: Size of nucleolipid particles as a function of pH and time (stability of acid-sensitive compounds); type: physicochemical; settings: for sensitivity at acidic pH values: pH 4, pH 5, pH 6; for stability at physiological pH: pH 7.4
Procedure: To this effect, the variation of the size of nucleolipid complexes (identical to those used in examples 9 and 10) is measured as a function of the pH and time, for various acid-sensitive pegoylated lipids, which makes it possible to cover different ranges of sensitivity.

[3] = test system: control cationic lipid/DNA nucleolipid particles; experiment: Size of nucleolipid particles as a function of time at pH 5; type: physicochemical; settings: for aggregation of the particles after 4 hours: pH 5, 37° C.
Procedure: The acid-sensitive pegoylated lipid used in this example is the compound D prepared in example 5, as well as its non-acid-sensitive analog called “Analog D” in the preceding example and in the text which follows.
as §1
The size of the particles is measured as a function of time.

[4] = test system: Balb/C mice carrying subcutaneous M109 tumors; experiment: In vivo gene transfer of DNA/cationic lipid/DOPE complexes, CAT assay
Procedure: The cationic lipid of formula: [drawing 28] and the neutral lipid DOPE (obtained from Avanti Polar Lipids, Birmingham, Ala.) where it is dissolved in chloroform and then mixed in equimolar quantities.
Appropriate quantities of compound D were dissolved in chloroform and added to the mixture. The quantities of compound D used are given in mol % of the total quantity of lipid.
The organic solvent is then evaporated under an argon stream so that a thin lipid film forms at the bottom of the tube. This film is dried under vacuum for at least 1 hour and then rehydrated with a 20 mM HEPES buffer at pH 7.4 and 5% dextrose, at 4° C. for 2 hours. The lipid suspension thus obtained is heated at 50° C. for 30 minutes, and then sonicated for 5 minutes so as to form a homogeneous suspension of liposomes of about 100 nm.
The DNA used is plasmid DNA containing the CAT gene under the control of a CMV promoter.
Equivalent volumes of liposome suspension (in appropriate concentration) are rapidly added to a DNA solution while mixing rapidly and vigorously. Overall, 1 μg of DNA forms a complex with 5 nmol of cationic lipid. The complexes formed have a diameter of approximately 100 to 240 nm.
About 6 week old female Balb/C mice are used in all the experiments. Each mouse receives a subcutaneous injection with 10^6 M109 cells in the right flank. When the tumours reach a size of about 300 mm^3, the mice receive 200 μl of DNA/lipid complexes containing 50 μg of DNA, by intravenous injection. The tissues are removed 24 hours after injection and stored at −70° C. until used.
The tissues are homogenized using a “FastPrep Cell Disrupter FP120” apparatus (Bio 101/Savant). The samples are then centrifuged at 1 000 revolutions/minute for 5 minutes. The quantity of CAT transgene expressed is determined using a standard CAT ELISA procedure (Roche, Ind.).

| Compound | variation in fluorescence over time (DNA not completely compacted) (DNA; pH 5, 37° C.) | transfection activity (HeLa cells) | effect of the presence of serum on transfection (HeLa cells) | colloidal stabilizing power [1] | sensitivity at acidic pH values [2] | stability at physiological pH [2] | further results |
| --- | --- | --- | --- | --- | --- | --- | --- |
| CCCCCCCCCCCCCCCCCCN(CCCCCCCCCCCCCCCCCC)C(=O)CCCOC1OCC(CNC(=O)CNCCCNCCCCNCCCN)O1 (stereo not drawn) [Compound A Syn, 4-{4-[(2-{3-[4-(3-amino-propylamino)butylamino]propyl-amino}acetylamino)methyl]-[1,3]dioxolan-2-yloxy}-N,N-dioctadecylbutyramide tetraacetate] | no significant variation in fluorescence | high transfection activity | inhibition of transfection | – | – | – | release of the DNA over time (increase in fluorescence) (DNA; pH 5, 37° C., 1.7 and 6.0 nmol lipid/μg of DNA): release the DNA over time; time of release of DNA after the addition of acid (DNA; pH 5 and 37° C.): a few hours after the addition of acid |
| CCCCCCCCCCCCCCCCCCN(CCCCCCCCCCCCCCCCCC)C(=O)CNC(=O)CNCCCNCCCCNCCCN [control cationic lipid, H2N—(CH2)3—NH—(CH2)4—NH—(CH2)3—NH—CH2—CO-Gly-N[(CH2)17—CH3]2, reference compound] | no significant variation in fluorescence | high transfection activity | inhibition of transfection | – | – | – | – |
| methoxy-(polyethylene glycol 5000)-(N-(2-octadecyloxy-[1,3]dioxolan-4-ylmethyl)amide [Compound C] | – | – | – | comparable to that of the stable nonionic surfactants | high sensitivity at acidic pH values | relatively stable at physiological pH | duration of stabilization of the nucleolipid particles ([2]; pH 6, 37° C.): at least 4 hours |
| methoxy-(polyethylene glycol 5000)-N-(2-methyl-2-octadecyloxy-[1,3]dioxan-5-yl)amide [Compound E] | – | – | – | – | high sensitivity at acidic pH values | relatively stable at physiological pH | start of aggregation of the nucleolipid particles after the acidification ([2]; pH 6, 37° C.): about 1 hour |
| methoxy-(polyethylene glycol 5000)-N-{2-[17-(1,5-dimethylhexyl)-10,13-dimethyl-2,3,4,7,8,9,10,11,12,13,14,15,16,17-tetradecahydro-1H-cyclopenta[a]-phenanthren-3-yloxy]-[1,3]dioxolan-4-ylmethyl}amide [Compound D] | – | – | – | comparable to that of the stable nonionic surfactants | – | – | aggregation of the particles after 4 hours ([3]; pegoylated lipid/DNA ratio of 0.5): completely formed into aggregates; aggregation of the particles after 4 hours ([3]; pegoylated lipid/DNA ratio of 1): not at all or only slightly; colloidal stability of the particles at time t=0 ([3]; pH 5, t=0, regardless of the compound/DNA ratio): the same stability; increase of the gene transfer activity specific to the tumors relative to the lungs (factor) ([4]; M109 tumors versus lungs): 40; gene transfer in the tumors ([4]; M109 tumors, intravenous injection, 50 μg of DNA, 24 hours after injection, increasing quantity of pegoylated lipid): gene transfer does not appear to be affected in the tumors; transfection activity in the lungs ([4]; intravenous injection, 50 μg of DNA, tissues 24 hours after injection, increasing quantity of pegoylated lipid): the transfection activity is also inhibited in the lungs |
